Experimental data from patent US10179775B2, “Cyclooctenes for bioorthogonol reactions” (The General Hospital Corporation, priority 2014, dated 2019).
Entries after “also recorded” stand apart in the source; their conditions may differ. Blank lines part the entries; values can stand above or below the molecule they belong to.

Assays:
Assay type in all cases: physicochemical
[1] = Chemical stability in the presence of cysteine by 1H NMR; settings: 37° C.; for chemical stability / isomerization, result in words: 48 mM cysteine, 20 mM cyclooctene (s-TCO 10 mM), D2O:DMSO-d6 10:1 v/v, 0-14 h; for trans-isomer still present after 6 hours / Icis / Itrans: cysteine
Method: (§1) The chemical stability of the compounds of Examples 1-3 was also investigated in the presence of thiols (cysteine and mercaptoethanol) by NMR in D2O:DMSO-d6 10:1 v/v at 37° C.
(§2) The solutions were prepared by the dilution of a stock solution prepared in DMSO-d6. An end concentration of 20 mM of the cyclooctenes was used except for the s-TCO, which was used in 10 mM end concentration due to poorer solubility. A 20 mM solution could not be prepared by dilution with D2O from DMSO-d6 stock solution without the precipitation of s-TCO. Nucleophiles mercaptoethanol and cysteine were used in 48 mM end concentration. Cysteine precipitated very soon from the solution. In all cases reactions were followed by ^1H NMR.
(§3) Measurements were taken in the following intervals: mercaptoethanol: 0 h, 2 h, 11 h, 17 h and 25 h; cysteine: 0 h, 6 h and 14 h; s-TCO without nucleophile at room temperature: 1 h, 7 h and 14 h.
(§4) In each case the ratio of the integrals of the cis-double bond to the sum of the integrals of the cis- and trans-double bonds was calculate.

[2] = Spontaneous isomerization in D2O or D2O:DMSO-d6 without nucleophile by 1H NMR; settings: for isomerization or degradation on storage in D2O, result in words: stored in D2O, 1H NMR
Method: Bulk samples of the compounds described above in Examples 1-3 were stored at −20° C. for six months. […] The spontaneous isomerization took almost 5 days at 37° C. and more than 12 days at room temperature. […] With 22, a similar degree of isomerization was observed only after 63 hours at room temperature in D2O.
as §3, §4

[3] = Chemical stability in the presence of mercaptoethanol by 1H NMR; set-up: Icis / Itrans: unit not given here; settings: for Icis / Itrans / Itrans/(Icis + Itrans) / chemical stability (change by NMR) after 16 hours: mercaptoethanol; for Icis / Itrans / Itrans/(Icis + Itrans) / chemical stability / isomerization, result in words: 37° C.; for chemical stability / isomerization, result in words: 48 mM mercaptoethanol, 20 mM cyclooctene (s-TCO 10 mM), D2O:DMSO-d6 10:1 v/v, 0-25 h; for chemical stability (change by NMR) after 16 hours: D2O:DMSO-d6 10:1 v/v at 37° C.
Method: as §1, §2
Measurements were taken in the following intervals: mercaptoethanol: 0 h, 2 h, 11 h, 17 h and 25 h; cysteine: 0 h, 6 h and 14 h; s-TCO without nucleophile at room temperature: 1 h, 7 h and 14 h. […]

[4] = Tetrazine kinetics with cyclooctenes (stopped-flow spectrophotometry); settings: for k2 second rate constant / second order rate constant k2: reaction with benzylamino tetrazine in PBS at 37° C.
Method: Kinetic measurements were performed with benzylamino tetrazine and excessive amounts of cyclooctenes, using an Applied Photophysics Stopped-Flow spectrophotometer. Stock solutions of reactants in DMSO were diluted in PBS pH 7.4 to a final concentration of 1 vol % DMSO. Solutions of these reactants were loaded into the individual chambers of the instrument and equilibrated to 37° C. for 10 min. The concentration of benzylamino tetrazine after the samples were mixed by the spectrometer in a 1:1 v/v ratio was 50, 75 or 150 μM depending on the cyclooctene used. The decrease of the benzylamino tetrazine absorbance measured at 515 nm was monitored at regular intervals between 0.075 s and 10 s depending on the cyclooctene used. For trials shorter than […] (TCO-OH, OX-TCO and 3PEGMe-TCO) 1000 data points were collected and for trials longer than 1 s (EG-TCO and DO-TCO) 10000 data points were collected.
The kobs, (s^−1) values were calculated using the Prism 6 software package and the results of 6 runs were averaged for each cyclooctene concentration. […] The average kobs, values were then plotted against the concentration of cyclooctenes to yield the second order rate constant k2=(dm^3 mol^−1 s^−1) from the slope of the line with the error from the standard deviation in the slope calculated in Prism 6.

[5] = Chemical stability in the presence of cysteine by 1H NMR; settings: for Itrans/(Icis + Itrans): 37° C.; for chemical stability (change by NMR) after 16 hours: D2O:DMSO-d6 10:1 v/v at 37° C.
[6] = Spontaneous isomerization in D2O or D2O:DMSO-d6 without nucleophile by 1H NMR; settings: D2O:DMSO-d6 (10:1 v/v), room temperature, no nucleophile
[7] = Solubility in DMSO/water (D2O) mixtures; settings: dilution with D2O from DMSO-d6 stock solution (D2O:DMSO-d6 10:1)
Method: as §2
The conjugates were tested in imaging experiments (FIG. 1). An advantage of the new trans cyclooctene derivatives lies in their improved solubility in DMSO/water mixtures. Bioorthogonal imaging experiments of PARP protein in HT1080 cells (expressing PARP1 fused to mCherry) were successful with all three new compounds, (FIG. 1). The imaging experiments were performed by treating HT1080 cells (expressing PARP1 fused to mCherry) with 5 μM compound 45 (a-d), 46 (e-h) and 47 (i-l) for 30 minutes. After washing with growth media three times for 5 minutes each, cells were incubated for 30 minutes with 1 μM of CFDA-Tz for bio-orthogonal reaction inside the live cells. Following fixation, 40× images were collected by deconvolution microscopy a, e, i) bright field images; b, f, j) Olaparib-TCO/Tz-CFDA staining; c, g, k) PARP1-mCherry, d, h, l) merged images (see FIG. 1). […]

[8] = D2O:DMSO-d6 (10:1 v/v), room temperature, no nucleophile, t 1 h
[9] = D2O:DMSO-d6 (10:1 v/v), room temperature, no nucleophile, t 7 h
[10] = D2O:DMSO-d6 (10:1 v/v), room temperature, no nucleophile, t 14 h

SMILES: COCCOCCOCCOC1CC/C=C/CCC1O (centres unmarked) [3PEGMe-TCO, (E)-8-(2-(2-(2-methoxyethoxy)ethoxy)ethoxy)cyclooct-4-enol]
chemical stability / isomerization, result in words [1]: did not show any degradation; also recorded: relatively stable | isomerization or degradation on storage in D2O, result in words [2]: no isomerization or degradation | Icis ([3]; t 0 h): 0.17 | Itrans ([3]; t 0 h): 2 | Itrans/(Icis + Itrans) ([3]; t 0 h): 0.922 | Icis ([3]; t 2 h): 0.48 | Itrans ([3]; t 2 h): 2 | Itrans/(Icis + Itrans) ([3]; t 2 h): 0.807 | Icis ([3]; t 11 h): 0.66 | Itrans ([3]; t 11 h): 2 | Itrans/(Icis + Itrans) ([3]; t 11 h): 0.752 | Icis ([3]; t 17 h): 0.69 | Itrans ([3]; t 17 h): 2 | Itrans/(Icis + Itrans) ([3]; t 17 h): 0.744 | Icis ([3]; t 25 h): 0.74 | Itrans ([3]; t 25 h): 2 | Itrans/(Icis + Itrans) ([3]; t 25 h): 0.730

SMILES: OCCOC1/C=C/CCCCC1 (centres unmarked) [EG-TCO, (E)-2-(cyclooct-2-en-1-yloxy)ethanol]
k2 second rate constant [4]: 600 ± 6 dm^3 · mol^−1 · s^−1 | second order rate constant k2 [4]: 600±6 dm^3 mol^−1 s^−1 | chemical stability (change by NMR) after 16 hours [5]: did not show any change | chemical stability / isomerization, result in words [1]: did not show any change; also recorded: relatively stable | chemical stability / isomerization, result in words [3]: did not show any change; also recorded: relatively stable | chemical stability (change by NMR) after 16 hours [3]: did not show any change

SMILES: OC1CC/C=C/CCC1 (stereo not drawn) [TCO-OH, trans-cyclooctenol, reference compound]
k2 second rate constant [4]: 33585 ± 326 dm^3 · mol^−1 · s^−1 | chemical stability (change by NMR) after 16 hours [5]: did not show any change | chemical stability / isomerization, result in words [1]: did not show any change; also recorded: relatively stable | isomerization or degradation on storage in D2O, result in words [2]: no isomerization or degradation | chemical stability / isomerization, result in words [3]: did not show any change; also recorded: relatively stable | chemical stability / isomerization, result in words ([3]; listed as TCO): isomerized very fast | chemical stability (change by NMR) after 16 hours [3]: did not show any change

Further lines, with some results ahead:

Itrans/(Icis + Itrans) ([5]; t 0 h): 1 | Itrans/(Icis + Itrans) ([5]; t 6 h): 0 | Itrans/(Icis + Itrans) ([5]; t 14 h): 0 | trans-isomer still present after 6 hours [1]: no trans-compound was present | Icis ([1]; t 0 h): 0 | Itrans ([1]; t 0 h): 2 | Icis ([1]; t 6 h): 2 | Itrans ([1]; t 6 h): 0 | Icis ([1]; t 14 h): 2 | Itrans ([1]; t 14 h): 0 | time the spontaneous isomerization to the cis isomer took ([2]; D2O, 37° C.): ~5 days | time after which a similar degree of isomerization (at least 5%) was observed ([2]; D2O, room temperature): 63 h | time the spontaneous isomerization to the cis isomer took ([2]; D2O, room temperature): more than 12 days | isomerization or degradation on storage in D2O, result in words [2]: slow isomerization to the cis isomer | Icis ([3]; t 0 h): 0 | Itrans ([3]; t 0 h): 2 | Itrans/(Icis + Itrans) ([3]; t 0 h): 1 | Icis ([3]; t 2 h): 0.18 | Itrans ([3]; t 2 h): 2 | Itrans/(Icis + Itrans) ([3]; t 2 h): 0.917 | Icis ([3]; t 11 h): 0.38 | Itrans ([3]; t 11 h): 2 | Itrans/(Icis + Itrans) ([3]; t 11 h): 0.840 | Icis ([3]; t 17 h): 0.42 | Itrans ([3]; t 17 h): 2 | Itrans/(Icis + Itrans) ([3]; t 17 h): 0.826 | Icis ([3]; t 25 h): 0.79 | Itrans ([3]; t 25 h): 2 | Itrans/(Icis + Itrans) ([3]; t 25 h): 0.717
SMILES: OCCOC1/C=C/COCOC1 (centres unmarked) [DO-TCO, (E)-2-((5,8-dihydro-4H-1,3-dioxocin-5-yl)oxy)ethanol]
k2 second rate constant [4]: 332 ± 3 dm^3 · mol^−1 · s^−1 | second order rate constant k2 [4]: 332±3 dm^3 mol^−1 s^−1 | chemical stability / isomerization, result in words [1]: isomerization of the trans isomer to the cis isomer; also recorded: isomerization of the trans-isomer to the cis-isomer; also recorded: undergo isomerization/decomposition; also recorded: much faster than that of s-TCO

chemical stability (change by NMR) after 16 hours [5]: did not show any change | isomerization or degradation on storage in D2O, result in words [2]: no isomerization or degradation | chemical stability (change by NMR) after 16 hours [3]: did not show any change
SMILES: O=C1OC2CC/C=C/CCC2N1CCOCCO (centres unmarked) [OX-TCO, (E)-3-(2-(2-hydroxyethoxy)ethyl)-3,3a,4,5,9,9a-hexahydrocycloocta[d]oxazol-2(8H)-one]
weighted average second order rate constant k2 ([4]; 4:1 isomer mixture, benzylamino tetrazine in PBS at 37° C.): 29242±636 dm^3 mol^−1 s^−1 | k2 second rate constant [4]: 29242 ± 636 dm^3 · mol^−1 · s^−1 | chemical stability / isomerization, result in words [1]: did not show any change; also recorded: relatively stable | chemical stability / isomerization, result in words [3]: did not show any change; also recorded: relatively stable

Icis ([6]; t 0 h): 0 | Itrans ([6]; t 0 h): 2 | Itrans/(Icis + Itrans) ([6]; t 1 h): 0.985 | Itrans/(Icis + Itrans) ([6]; t 7 h): 0.971 | Itrans/(Icis + Itrans) ([6]; t 14 h): 0.952 | Itrans/(Icis + Itrans) ([5]; t 0 h): 0.913 | Itrans/(Icis + Itrans) ([5]; t 6 h): 0.652 | Itrans/(Icis + Itrans) ([5]; t 14 h): 0.192 | trans-isomer still present after 6 hours [1]: 65% | Icis ([1]; t 0 h): 0.19 | Itrans ([1]; t 0 h): 2 | Icis ([1]; t 6 h): 1.07 | Itrans ([1]; t 6 h): 2 | Icis ([1]; t 14 h): 8.42 | Itrans ([1]; t 14 h): 2 | concentration preparable without precipitation [7]: < 20000 µM | isomerization after 14 hours ([2]; D2O:DMSO-d6 10:1, room temperature, 14 hours): at least 5% | Itrans/(Icis + Itrans) ([2]; D2O:DMSO-d6 (10:1 v/v), room temperature, no nucleophile, t 0 h): 1 | Icis [2, 8]: 0.03 | Itrans [2, 8]: 2 | Icis [2, 9]: 0.06 | Itrans [2, 9]: 2 | Icis [2, 10]: 0.1 | Itrans [2, 10]: 2 | Icis ([3]; t 0 h): 1.19 | Itrans ([3]; t 0 h): 2 | Itrans/(Icis + Itrans) ([3]; t 0 h): 0.627 | Icis ([3]; t 2 h): 87 | Itrans ([3]; t 2 h): 2 | Itrans/(Icis + Itrans) ([3]; t 2 h): 0.023 | Icis ([3]; t 11 h): 2 | Itrans ([3]; t 11 h): 0 | Itrans/(Icis + Itrans) ([3]; t 11 h): 0 | Icis ([3]; t 17 h): 2 | Itrans ([3]; t 17 h): 0 | Itrans/(Icis + Itrans) ([3]; t 17 h): 0 | Icis ([3]; t 25 h): 2 | Itrans ([3]; t 25 h): 0 | Itrans/(Icis + Itrans) ([3]; t 25 h): 0
SMILES: OCC1C2CCC=CCCC12 (centres unmarked) [s-TCO, reference compound]
chemical stability / isomerization, result in words [1]: isomerization of the trans isomer to the cis isomer; also recorded: isomerization of the trans-isomer to the cis-isomer; also recorded: undergo isomerization/decomposition | chemical stability / isomerization, result in words [3]: isomerization of the trans isomer to the cis isomer; also recorded: occurred together with unidentified side reactions; also recorded: undergo isomerization/decomposition; also recorded: most of the s-TCO disappeared within the first two hours
